Residues, ends and D or L forms follow the SMILES beside them.
Tests used:
[1] = tested on: Swiss mouse 3T3-L1 cells; assay: Adipocyte differentiation of preadipocytes in vitro, GPDH activity as marker enzyme (Tests 1 and 2); type: cell-based; conditions: for action to inhibit the GPDH activity: treatment before and after the induction of differentiation, depending on the peptide concentration
Experimental: (1) Treatment before induction of differentiation
Swiss mouse 3T3-L1 cells were inoculated at a density of about 3×10^4 cells/ml to a cell culturing dish. A Dulbecco modified Eagle culture medium (DMEM) containing bovine fetal blood serum incorporated therein at a concentration of 10% was used as the culture medium. The culture was invariably carried out in an ambience of 5% CO2 and 95% of air at 37° C.
After a monolayer of cells was formed, the cell layer surface was washed with a phosphate buffer physiological salt solution (PBS). In the presence of culture media containing the CD and the fraction A respectively at concentration of 0, 2, 4, and 8 mg/ml and at concentration of 0, 20, 40, and 80 μg/ml, the cell layer was cultured. Then, the cell layer surface was washed with PBS and the cell layer was cultured for two days in the presence of a culture medium incorporating therein the differentiation inducing substance (0.25 μM of dexamethasone, […] of a-methyl-3-isobutyl xanthine, and 10 μg/ml insulin).
Subsequently, the cell layer was deprived of the culture medium containing the differentiation-inducing substance. The cell layer surface was washed likewise with PBS and the cell layer was cultured for about one week in the presence of a culture medium incorporating insulin therein at a concentration of 10 μg/ml.
The effect of the fraction A on the adipocyte differentiation was rated by determining the glycerol-3-phosphate dehydrogenase activity (GPDH) by the well-known method as a marker enzyme.
(2) Treatment after induction of differentiation
Swiss mouse 3T3-L1 cells were cultured by the same method as in (1) mentioned above and then tested for GPDH activity, providing that the culture medium containing insulin at a concentration of 10 μg/ml was added to the GD and the fraction A after the removal of the culture medium containing the differentiation inducing substance.
[Test 2] Differentiation inhibiting effect of adipocyte differentiation inhibiting peptide (chemical synthesis product) on preadipocytes (in vitro)
The effects of the chemically synthesized H-Val-Thr-Leu-OH and the H-Val-Tyr-Pro-OH obtained by the same method as in Example 5 on Swiss mouse 3T3-L1 cells in were investigated by the same method as in Example 5. […]

[2] = tested on: adipocytes in adipose tissue; assay: Effect of synthetic peptides on increase of cell number in murine adipose tissue (Test 3); type: in vivo, mice; conditions: 50% fat meal + 20 ppm peptide
Experimental: [Test 3] Effect of adipocyte differentiation inhibiting peptide (chemical synthesis product) (in vivo)
The two adipocyte differentiation inhibiting peptides of the invention, Val-Thr-Leu and Val-Tyr-Pro, synthesized by the method shown in Example 5 were tested for effect on increase of adipocytes (in vivo). The test was performed by the same method as in Test 1 using globin proteolysate.

[3] = tested on: adipose tissue; assay: Effect of globin proteolysate on increase of adipose tissue, mice on 50% fat feed (Test 4); type: in vivo; conditions: 50% fat feed + Clenbuterol 2 ppm
Description: Then, mice were allowed to ingest freely 50% fat feed and then tested for weight of adipose tissue and cell number.

[4] = tested on: cells in the subcutaneous adipose tissue; assay: Effect of globin proteolysate on distribution of adipose tissue cells (Test 4); type: in vivo, mice; conditions: 50% fat feed + Clenbuterol 2 ppm
Description: The cell number in adipose tissues shown in Table 7 represent the values including adipocytes, preadipocytes, fibroblasts, blood vessel cells, etc. The cells in the subcutaneous adipose tissue were investigated in detail as sorted into matured adipocytes, immatured adipocytes, and interstitial cells (stroma).
It is clearly noted from Table 8 showing the results of the investigation that particularly the differentiation of fibro-blasts in the group of interstitial cells represented as stromas to preadipocytes was repressed.

[5] = Peptide 0.2 mg/ml, treatment after induction of differentiation (48 hours)
[6] = Peptide 0.2 mg/ml, treatment before induction of differentiation (48 hours)
[7] = Peptide 0.4 mg/ml, treatment after induction of differentiation (48 hours)
[8] = Peptide 0.4 mg/ml, treatment before induction of differentiation (48 hours)
[9] = Peptide 0.8 mg/ml, treatment after induction of differentiation (48 hours)
[10] = Peptide 0.8 mg/ml, treatment before induction of differentiation (48 hours)

SMILES	GDPH activity [1, 5] [mU/mg protein]	Ratio of Inhibition [1, 5] [%]	GDPH activity [1, 6] [mU/mg protein]	Ratio of Inhibition [1, 6] [%]	GDPH activity [1, 7] [mU/mg protein]	Ratio of Inhibition [1, 7] [%]	GDPH activity [1, 8] [mU/mg protein]	Ratio of Inhibition [1, 8] [%]	GDPH activity [1, 9] [mU/mg protein]	Ratio of Inhibition [1, 9] [%]	GDPH activity [1, 10] [mU/mg protein]	Ratio of Inhibition [1, 10] [%]	action to inhibit the GPDH activity [1]	Number of adipocytes, Epididymal adipose tissue [2] [DNA μg/adipose tissue]	Number of adipocytes, Retroperitoneal adipose tissue [2] [DNA μg/adipose tissue]	Number of adipocytes, Subcutaneous adipose tissue [2] [DNA μg/adipose tissue]	other results
CC(C)C[C@H](NC(=O)[C@@H](NC(=O)[C@@H](N)C(C)C)[C@@H](C)O)C(=O)O [Val-Thr-Leu, H-Val-Thr-Leu-OH] (H-Val-Thr-Leu-OH)	463.2 ± 29.7	35.5	102.5 ± 19.6	82.1	281.1 ± 19.6	60.8	8.1 ± 1.6	98.6	13.8 ± 5.4	98.1	6.3 ± 1.9	98.9	conspicuous action to inhibit the GPDH activity	88	23	102	–
CC(C)[C@H](N)C(=O)N[C@@H](Cc1ccc(O)cc1)C(=O)N1CCC[C@H]1C(=O)O [Val-Tyr-Pro, H-Val-Tyr-Pro-OH] (H-Val-Tyr-Pro-OH)	412.6 ± 20.3	42.5	106.7 ± 28.1	83.0	197.3 ± 27.5	72.5	10.6 ± 2.3	98.5	14.7 ± 2.7	98.0	7.8 ± 1.5	98.7	conspicuous action to inhibit the GPDH activity	102	27	125	–
CC(C)(C)NCC(O)c1cc(Cl)c(N)c(Cl)c1 (centres unmarked) [Clenbuterol]	–	–	–	–	–	–	–	–	–	–	–	–	–	–	–	–	Number of adipocytes, Epididymal adipose tissue [3]: 79 ± 7 DNA μg/adipose tissue; Number of adipocytes, Retroperitoneal adipose tissue [3]: 18 ± 2 DNA μg/adipose tissue; Number of adipocytes, Subcutaneous adipose tissue [3]: 96 ± 8 DNA μg/adipose tissue; weight of adipose tissue, Epididymal adipose tissue [3]: 0.97 ± .11 g; weight of adipose tissue, Retroperitoneal adipose tissue [3]: 0.28 ± .04 g; weight of adipose tissue, Subcutaneous adipose tissue [3]: 1.49 ± .22 g; Adipocyte [4]: 30; Preadipoytes [4]: 30; Stroma [4]: 36

— US5756467A, “Adipocyte differentiation inhibiting peptide and adipocyte differentiation inhibiting agent using the peptide as active component thereof” (Itoham Foods Inc., priority 1993, dated 1998)
